Literature values as cited in patent US20250170254A1, “Subdermal Implant for Sustained Drug Delivery” (OAK CREST INSTITUTE OF SCIENCE, priority 2022, published 2025).

Tests used:
[1] = 600 mg every 8 weeks, intramuscular long-acting formulation
HIV = details: four times the protein adjusted IC90 from non-human primate efficacy studies
HIV-1 [2] = details: long-acting injectable formulation
HIV-1 [3] = details: MDTG versus DTG
[4] = in vivo
HIV-1 [5] = system: HIV-1

For `C[C@H]1CO[C@@H]2Cn3cc(C(=O)NCc4ccc(F)cc4F)c(=O)c(O)c3C(=O)N12` [CAB, cabotegravir], the “participants with trough concentrations above 1×PA-IC90” value [1] is given as at least 95%, the “participants with trough concentrations above 4×PA-IC90” value [1] is given as at least 80% and the “target steady state plasma concentration (four times PA-IC90)” value (HIV) is given as 0.66 µg/mL. For the same compound, the “efficacy versus daily oral TDF-FTC in prevention of HIV-1” value (HIV-1 [2]) was “superiority”.
In the case of `CCCCCCCCCCCCCC(=O)Oc1c2n(cc(C(=O)NCc3ccc(F)cc3F)c1=O)C[C@@H]1OCC[C@@H](C)N1C2=O` [MDTG], the “IC50 against HIV-1 compared with DTG” value (HIV-1 [3]) is given as “not statistically different”.
In the case of `C[C@@H]1CCO[C@H]2Cn3cc(C(=O)NCc4ccc(F)cc4F)c(=O)c(O)c3C(=O)N12` [DTG, dolutegravir], the systemic half-life [4] is listed as 12 to 15 h, the IC50 (HIV-1 [5]; in vitro against HIV-1, PBMCs, read-out: IC50 in peripheral blood mononuclear cells (PBMCs)) is listed as 0.51 nM and the “protein-adjusted IC90 (PA-IC90)” value (HIV-1 [5]; in vitro against HIV-1, protein-adjusted, mass units) is listed as 0.064 µg/mL. The IC90 (HIV-1 [5]; in vitro against HIV-1, protein-adjusted, read-out: protein-adjusted IC90 (PA-IC90)) was 150 nM.
